The text below walks through data of paper PMC9481570, “A small molecule antagonist of SMN disrupts the interaction between SMN and RNAP II” (Nature Communications, 2022).

The structures appear in SMILES notation. “And” between values parts separate entries of the source, which are not always exact repeats. Identical values can stand only once.

Assay in all cases: Affinity-purification and mass spectrometry (AP-MS) chemical proteomics, all proteins;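 as to Difference: 200 µM free competitor with 20 µM biotin probe overnight in lysate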
Format in all cases: binding

The target in test [1] is T1, proteins displaced from immobilized biotin-Cmpd 1 pulldowns (U2OS cell lysate) (Homo sapiens, UniProt O43660).
T1 construct: endogenous in cells; host or cells: U2OS
T1 sequence (O43660 whole entry): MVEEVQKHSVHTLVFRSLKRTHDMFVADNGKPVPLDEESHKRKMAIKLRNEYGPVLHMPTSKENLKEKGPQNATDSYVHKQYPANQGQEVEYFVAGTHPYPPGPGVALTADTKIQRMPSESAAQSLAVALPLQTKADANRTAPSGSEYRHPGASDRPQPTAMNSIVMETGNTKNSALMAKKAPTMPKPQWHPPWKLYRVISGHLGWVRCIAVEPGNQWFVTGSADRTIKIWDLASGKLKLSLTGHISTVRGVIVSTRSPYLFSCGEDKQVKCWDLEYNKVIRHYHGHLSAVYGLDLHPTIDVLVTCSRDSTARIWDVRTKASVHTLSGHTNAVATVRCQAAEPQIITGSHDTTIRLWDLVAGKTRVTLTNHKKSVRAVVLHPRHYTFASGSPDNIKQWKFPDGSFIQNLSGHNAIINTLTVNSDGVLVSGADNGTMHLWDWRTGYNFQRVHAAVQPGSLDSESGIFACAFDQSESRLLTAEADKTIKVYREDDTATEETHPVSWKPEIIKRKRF
The following applies: GN=PLRG1 (O43660).

The target in test [2] is T2, proteins displaced from immobilized biotin-Cmpd 1 pulldowns (U2OS cell lysate) (Homo sapiens, UniProt P50991).
T2 construct: endogenous in cells; host or cells: U2OS
T2 sequence (P50991 whole entry): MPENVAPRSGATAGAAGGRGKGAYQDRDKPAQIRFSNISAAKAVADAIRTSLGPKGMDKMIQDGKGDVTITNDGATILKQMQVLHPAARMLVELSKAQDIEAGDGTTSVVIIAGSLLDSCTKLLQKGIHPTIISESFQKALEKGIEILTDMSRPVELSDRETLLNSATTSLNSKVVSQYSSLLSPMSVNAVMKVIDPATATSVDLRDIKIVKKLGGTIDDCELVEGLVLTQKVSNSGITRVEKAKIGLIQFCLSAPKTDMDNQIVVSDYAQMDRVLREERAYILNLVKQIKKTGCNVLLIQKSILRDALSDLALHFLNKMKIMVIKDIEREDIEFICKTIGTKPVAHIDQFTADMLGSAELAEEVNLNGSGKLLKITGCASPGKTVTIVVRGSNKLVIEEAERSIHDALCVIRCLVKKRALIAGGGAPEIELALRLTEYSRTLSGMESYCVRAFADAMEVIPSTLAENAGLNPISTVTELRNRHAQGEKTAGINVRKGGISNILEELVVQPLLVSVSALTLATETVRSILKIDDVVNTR
The following applies: GN=CCT4 (P50991).

The target of test [3] is T3, proteins displaced from immobilized biotin-Cmpd 1 pulldowns (U2OS cell lysate) (Homo sapiens, UniProt P06396).
T3 construct: endogenous in cells; host or cells: U2OS
T3 sequence (P06396 28-782): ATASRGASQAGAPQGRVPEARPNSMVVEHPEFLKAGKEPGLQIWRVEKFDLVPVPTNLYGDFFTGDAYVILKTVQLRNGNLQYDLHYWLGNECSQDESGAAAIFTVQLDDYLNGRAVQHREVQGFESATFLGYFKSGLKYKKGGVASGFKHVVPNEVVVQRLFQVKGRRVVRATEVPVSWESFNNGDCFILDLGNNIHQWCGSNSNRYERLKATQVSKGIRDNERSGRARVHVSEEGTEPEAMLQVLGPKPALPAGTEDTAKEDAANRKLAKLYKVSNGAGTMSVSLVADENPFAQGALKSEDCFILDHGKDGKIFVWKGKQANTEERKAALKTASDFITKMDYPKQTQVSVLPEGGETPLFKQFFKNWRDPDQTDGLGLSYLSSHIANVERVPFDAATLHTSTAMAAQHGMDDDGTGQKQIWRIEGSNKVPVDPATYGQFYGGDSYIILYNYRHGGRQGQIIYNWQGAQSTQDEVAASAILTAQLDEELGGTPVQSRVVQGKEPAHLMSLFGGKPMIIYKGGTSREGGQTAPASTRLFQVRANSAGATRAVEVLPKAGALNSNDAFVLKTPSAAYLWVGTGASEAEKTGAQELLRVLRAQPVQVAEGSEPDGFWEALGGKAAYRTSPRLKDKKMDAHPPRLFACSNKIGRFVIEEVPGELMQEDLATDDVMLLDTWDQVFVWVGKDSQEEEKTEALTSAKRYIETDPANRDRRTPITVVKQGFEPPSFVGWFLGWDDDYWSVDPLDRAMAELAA
Conditions: GN=GSN (P06396).

Test [4] has as its target T4, proteins displaced from immobilized biotin-Cmpd 1 pulldowns (U2OS cell lysate) (Homo sapiens, UniProt P25311).
T4 construct: endogenous in cells; host or cells: U2OS
The following applies: GN=AZGP1 (P25311).

Test [5] deals with T5, proteins displaced from immobilized biotin-Cmpd 1 pulldowns (U2OS cell lysate) (Homo sapiens, UniProt P20042).
T5 construct: endogenous in cells; host or cells: U2OS
T5 sequence (P20042 whole entry): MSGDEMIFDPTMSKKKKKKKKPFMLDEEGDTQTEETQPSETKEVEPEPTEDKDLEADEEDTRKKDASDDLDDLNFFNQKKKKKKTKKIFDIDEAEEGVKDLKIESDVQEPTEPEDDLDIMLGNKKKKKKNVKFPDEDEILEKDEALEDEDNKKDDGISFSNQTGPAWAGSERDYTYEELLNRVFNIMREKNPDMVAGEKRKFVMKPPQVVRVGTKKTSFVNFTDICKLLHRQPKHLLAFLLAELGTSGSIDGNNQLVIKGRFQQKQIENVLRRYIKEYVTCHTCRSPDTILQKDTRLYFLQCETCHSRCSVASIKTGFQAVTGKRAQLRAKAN
Conditions: GN=EIF2S2 (P20042).

The target in test [6] is T6, proteins displaced from immobilized biotin-Cmpd 1 pulldowns (U2OS cell lysate) (Homo sapiens, UniProt P62306).
T6 construct: endogenous in cells; host or cells: U2OS
T6 sequence (P62306 whole entry): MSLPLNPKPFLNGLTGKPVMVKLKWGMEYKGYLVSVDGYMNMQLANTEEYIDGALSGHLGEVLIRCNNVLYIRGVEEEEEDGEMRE
The following applies: GN=SNRPF (P62306).

Test [7] relates to proteins displaced from immobilized biotin-Cmpd 1 pulldowns (U2OS cell lysate). Conditions: Cmpd minus DMSO.
Test [8] addresses T7, proteins displaced from immobilized biotin-Cmpd 1 pulldowns (U2OS cell lysate) (Homo sapiens, UniProt P04083).
T7 construct: endogenous in cells; host or cells: U2OS
The following applies: GN=ANXA1 (P04083).

The target of test [9] is T8, proteins displaced from immobilized biotin-Cmpd 1 pulldowns (U2OS cell lysate) (Homo sapiens, UniProt Q9BVJ6).
T8 construct: endogenous in cells; host or cells: U2OS
T8 sequence (Q9BVJ6 whole entry): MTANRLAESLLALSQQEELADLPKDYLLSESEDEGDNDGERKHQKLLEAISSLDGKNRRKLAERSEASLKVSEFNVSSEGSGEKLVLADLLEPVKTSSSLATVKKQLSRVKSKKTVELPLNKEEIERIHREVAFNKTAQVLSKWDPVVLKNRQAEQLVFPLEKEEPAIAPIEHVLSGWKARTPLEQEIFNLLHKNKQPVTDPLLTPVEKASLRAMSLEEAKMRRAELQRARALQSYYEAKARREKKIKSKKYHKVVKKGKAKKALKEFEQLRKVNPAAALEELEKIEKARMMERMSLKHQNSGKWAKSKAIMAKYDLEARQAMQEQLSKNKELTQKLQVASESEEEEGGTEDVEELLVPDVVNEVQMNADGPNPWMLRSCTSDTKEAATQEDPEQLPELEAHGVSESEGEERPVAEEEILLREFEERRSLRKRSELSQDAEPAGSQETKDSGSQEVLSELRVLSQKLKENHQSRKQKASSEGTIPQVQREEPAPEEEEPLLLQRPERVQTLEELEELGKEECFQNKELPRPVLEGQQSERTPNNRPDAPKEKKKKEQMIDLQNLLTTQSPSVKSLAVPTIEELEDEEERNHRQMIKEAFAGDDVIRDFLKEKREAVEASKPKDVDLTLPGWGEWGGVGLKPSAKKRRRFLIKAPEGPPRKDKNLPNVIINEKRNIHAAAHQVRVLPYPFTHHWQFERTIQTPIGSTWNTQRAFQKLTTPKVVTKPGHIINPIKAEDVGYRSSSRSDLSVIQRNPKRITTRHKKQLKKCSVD
Conditions: GN=UTP14A (Q9BVJ6).

T7 sequence (P04083 whole entry): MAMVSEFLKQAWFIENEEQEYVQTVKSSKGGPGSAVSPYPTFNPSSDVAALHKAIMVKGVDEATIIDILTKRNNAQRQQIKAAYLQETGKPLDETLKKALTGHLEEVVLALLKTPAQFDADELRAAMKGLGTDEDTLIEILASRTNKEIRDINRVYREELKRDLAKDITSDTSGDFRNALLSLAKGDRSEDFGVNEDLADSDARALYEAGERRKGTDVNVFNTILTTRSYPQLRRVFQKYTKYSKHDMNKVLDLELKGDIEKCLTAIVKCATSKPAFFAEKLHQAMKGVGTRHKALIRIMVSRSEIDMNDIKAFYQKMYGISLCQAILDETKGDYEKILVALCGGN
T4 sequence (P25311 21-298): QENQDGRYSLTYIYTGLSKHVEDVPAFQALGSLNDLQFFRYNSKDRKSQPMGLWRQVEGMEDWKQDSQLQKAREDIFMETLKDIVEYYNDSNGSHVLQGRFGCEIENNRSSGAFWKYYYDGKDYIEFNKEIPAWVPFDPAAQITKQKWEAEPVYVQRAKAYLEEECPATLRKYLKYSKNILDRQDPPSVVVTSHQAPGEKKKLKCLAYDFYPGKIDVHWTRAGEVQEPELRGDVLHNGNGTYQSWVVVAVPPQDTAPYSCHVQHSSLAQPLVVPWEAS

Turning to `Cn1c2c(c(=N)c3c1CCC3)CCC2` [Compound 1, 4-methyl-2,3,4,5,6,7-hexahydrodicyclopenta[b,e]pyridin-8(1H)-imine], the Difference in [1] (Cmpd minus DMSO, -LOG(P-value) 0.874244) is 2.0669; in test [2] (Cmpd minus DMSO, -LOG(P-value) 0.713793), 0.7229; in test [3] (Cmpd minus DMSO, -LOG(P-value) 0.71197), -1.503; in test [4] (Cmpd minus DMSO, -LOG(P-value) 0.92202) it was -1.239; in [5] (Cmpd minus DMSO, -LOG(P-value) 0.750637), -2.049; in [6] (Cmpd minus DMSO, -LOG(P-value) 2.38454), -6.902. For the same compound, the Difference in test [7] (GN=ACTA1/ACTC1 (P68133;P68032;P63267;P62736), -LOG(P-value) 1.19415) was -2.469; in test [7] (GN=FXR1 (P51114;P51116 FXR2), -LOG(P-value) 0.714644), 1.56; in test [7] (GN=MYL1/MYL3 (P05976;P08590), -LOG(P-value) 0.754366), -4.118; in test [7] (GN=RGPD4/RGPD3 (Q7Z3J3;A6NKT7;P49792), -LOG(P-value) 1.07048), -0.9439; in test [7] (GN=TUBB2A/TUBB2B (Q13885;Q9BVA1), -LOG(P-value) 2.56756), 3.9801; in [8] (Cmpd minus DMSO, -LOG(P-value) 1.67082), -2.872. The same compound came in with a Difference in test [9] (Cmpd minus DMSO, -LOG(P-value) 0.846922) of 1.578. Besides, the “iBAQ Cmpd” value in test [1] (replicates 1-3) is 19.5697 and 18.4715 and 18.0629; in test [2] (replicates 1-3), 21.0359 and 20.6692 and 20.6092; in test [3] (replicates 1-3), 18.7093 and 18.978 and 19.6978; in [4] (replicates 1-3), 21.041 and 21.3151 and 19.6243; in test [5] (replicates 1-3), 14.3581 and 16.9929 and 16.8192; in [6] (replicates 1-3), 16.7845 and 14.607 and 12.7996. Further, the “iBAQ Cmpd” value was 14.2553 and 14.7701 and 16.566 in test [8] (replicates 1-3); 17.3529 and 17.1229 and 16.9849 in test [9] (replicates 1-3).
